Test results published in PubChem BioAssay AID248 (DTP/NCI, 2004).
Where “and” joins values, the source holds several entries; their conditions need not be identical. Equal values may be shown once. Inconclusive results and toxic doses are left out. Rule as the data show it: active = T/C of 150% or more; inactive = T/C below 125%.

Tested on: L1210 leukemia ip in BDF1 mice, survival T/C
Assay: NCI In Vivo Anticancer Drug Screen. Data for tumor model L1210 Leukemia (intraperitoneal) in B6D2F1 (BDF1) mice
Conditions: endpoint: mean survival time, higher = longer survival
Procedure, shortened: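 In this screen, tumor-bearing mice given compound are compared to those given vehicle, and their survival values are reported as a treated-to-control quotient.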

[1] = dose: 100.0 mg/kg/injection, schedule: Q01DX009 (ip), vehicle: Klucel (hydroxypropylcellulose) (HPC)
[2] = dose: 100.0 mg/kg/injection, schedule: Q04DX003 (ip), vehicle: Klucel (hydroxypropylcellulose) (HPC)
[3] = dose: 200.0 mg/kg/injection, schedule: Q01DX009 (ip), vehicle: Klucel (hydroxypropylcellulose) (HPC)
[4] = dose: 200.0 mg/kg/injection, schedule: Q04DX003 (ip), vehicle: Klucel (hydroxypropylcellulose) (HPC)
[5] = dose: 400.0 mg/kg/injection, schedule: Q01DX009 (ip), vehicle: Klucel (hydroxypropylcellulose) (HPC)
[6] = dose: 400.0 mg/kg/injection, schedule: Q04DX003 (ip), vehicle: Klucel (hydroxypropylcellulose) (HPC)
[7] = dose: 50.0 mg/kg/injection, schedule: Q04DX003 (ip), vehicle: Klucel (hydroxypropylcellulose) (HPC)
[8] = dose: 100.0 mg/kg/injection, schedule: Q04DX003 (ip), vehicle: saline
[9] = dose: 100.0 mg/kg/injection, schedule: Q04DX002 (ip), vehicle: saline with Tween-80
[10] = dose: 200.0 mg/kg/injection, schedule: Q04DX002 (ip), vehicle: saline with Tween-80
[11] = dose: 400.0 mg/kg/injection, schedule: Q04DX002 (ip), vehicle: saline with Tween-80
[12] = dose: 100.0 mg/kg/injection, schedule: Q01DX009 (ip), vehicle: saline with Tween-80
[13] = dose: 15.0 mg/kg/injection, schedule: Q01DX Z (ip), vehicle: carboxymethylcellulose (CMC)
[14] = dose: 100.0 mg/kg/injection, schedule: Q01DX001 (ip), vehicle: saline
[15] = dose: 200.0 mg/kg/injection, schedule: Q01DX001 (ip), vehicle: saline
[16] = dose: 200.0 mg/kg/injection, schedule: Q04DX003 (ip), vehicle: saline
[17] = dose: 400.0 mg/kg/injection, schedule: Q01DX001 (ip), vehicle: saline
[18] = dose: 200.0 mg/kg/injection, schedule: Q01DX009 (ip), vehicle: saline with Tween-80
[19] = dose: 400.0 mg/kg/injection, schedule: Q01DX009 (ip), vehicle: saline with Tween-80
[20] = dose: 50.0 mg/kg/injection, schedule: Q01DX001 (ip), vehicle: saline
[21] = dose: 100.0 mg/kg/injection, schedule: Q01DX001 (ip), vehicle: Klucel (hydroxypropylcellulose) (HPC)
[22] = dose: 200.0 mg/kg/injection, schedule: Q01DX001 (ip), vehicle: Klucel (hydroxypropylcellulose) (HPC)
[23] = dose: 50.0 mg/kg/injection, schedule: Q01DX009 (ip), vehicle: saline
[24] = dose: 100.0 mg/kg/injection, schedule: Q01DX009 (ip), vehicle: saline
[25] = dose: 200.0 mg/kg/injection, schedule: Q01DX009 (ip), vehicle: saline

Measured: T/C

C#[C][Sn]([CH2]CCC)([CH2]CCC)[CH2]CCC
inactive: dose: 0.39 mg/kg/injection, schedule: Q01DX009 (ip), vehicle: saline with Tween-80 109 % of control | dose: 0.78 mg/kg/injection, schedule: Q01DX009 (ip), vehicle: saline with Tween-80 94 % of control | dose: 1.56 mg/kg/injection, schedule: Q01DX009 (ip), vehicle: saline with Tween-80 95 % of control and 98 % of control

CN(C)c1ccc(C(=S)c2ccc(N(C)C)nc2)cn1
inactive: [1] 102 % of control | [2] 98 % of control | [3] 88 % of control | [4] 106 % of control | [5] 98 % of control | [6] 104 % of control

S=C(SSSSC(=S)N1CCCCC1)N1CCCCC1
inactive: [7] 97 % of control | [2] 101 % of control | [4] 92 % of control | [6] 92 % of control

COCc1ccc(N2C(N)=NC(N)=NC2(C)C)cc1
inactive: [8] 95 % of control

CCCCCCCN(CCCCCCC)C(=O)N(CC)CC
inactive: [9] 93 % of control | [10] 93 % of control | [11] 97 % of control

COc1ccc(N2C(=O)C3C(C2=O)C2(Cl)C(Cl)=C(Cl)C3(Cl)C2(Cl)Cl)c(OC)c1 (stereo unspecified)
inactive: [1] 90 % of control | [2] 101 % of control | [3] 95 % of control | [4] 104 % of control | [5] 93 % of control | [6] 92 % of control

CC[CH2][Pb]([CH2]CC)([CH2]CC)[N]1C(=O)c2ccccc2C1=O
inactive: dose: 3.12 mg/kg/injection, schedule: Q01DX009 (ip), vehicle: saline 98 % of control | dose: 3.12 mg/kg/injection, schedule: Q04DX002 (ip), vehicle: saline 92 % of control | dose: 6.25 mg/kg/injection, schedule: Q01DX009 (ip), vehicle: saline 101 % of control | dose: 6.25 mg/kg/injection, schedule: Q04DX002 (ip), vehicle: saline 111 % of control | dose: 12.5 mg/kg/injection, schedule: Q04DX002 (ip), vehicle: saline 94 % of control and 111 % of control

O=C(O)COc1c(Cl)c(Cl)c(Cl)c(Cl)c1Cl
inactive: [12] 93 % of control

O=C(Nc1ccc(/C=C/c2ccc(NC(=O)Nc3cccc(C4=NCCN4)c3)cc2)cc1)Nc1cccc(C2=NCCN2)c1
inactive: dose: 3.75 mg/kg/injection, schedule: Q01DX Z (ip), vehicle: carboxymethylcellulose (CMC) 93 % of control | dose: 7.5 mg/kg/injection, schedule: Q01DX Z (ip), vehicle: carboxymethylcellulose (CMC) 98 % of control | [13] 96 % of control | dose: 50.0 mg/kg/injection, schedule: Q01DX Z (ip), vehicle: carboxymethylcellulose (CMC) 103 % of control | dose: 100.0 mg/kg/injection, schedule: Q01DX Z (ip), vehicle: carboxymethylcellulose (CMC) 102 % of control | dose: 200.0 mg/kg/injection, schedule: Q01DX Z (ip), vehicle: carboxymethylcellulose (CMC) 97 % of control

Clc1ccc(N=Nc2ccccn2)cc1
inactive: dose: 100.0 mg/kg/injection, schedule: Q04DX002 (ip), vehicle: Klucel (hydroxypropylcellulose) (HPC) 101 % of control | dose: 200.0 mg/kg/injection, schedule: Q04DX002 (ip), vehicle: Klucel (hydroxypropylcellulose) (HPC) 96 % of control | dose: 400.0 mg/kg/injection, schedule: Q04DX002 (ip), vehicle: Klucel (hydroxypropylcellulose) (HPC) 93 % of control

CCCCOP(=O)(Nc1ccc([N+](=O)[O-])cc1)OCCCC
inactive: [9] 101 % of control | [10] 94 % of control | [11] 90 % of control

NCCc1ccc(N)cc1
inactive: [14] 106 % of control and 92 % of control | [8] 95 % of control | [15] 106 % of control and 89 % of control | [16] 98 % of control | [17] 97 % of control and 92 % of control | dose: 400.0 mg/kg/injection, schedule: Q04DX003 (ip), vehicle: saline 101 % of control

CC(=O)CSc1sc(C(C)=O)c(N)c1C#N
inactive: [12] 91 % of control | [18] 91 % of control | [19] 90 % of control

C(=N\Nc1nnc(N/N=C/c2cccc(OCc3ccccc3)c2)c2ccccc12)/c1cccc(OCc2ccccc2)c1
inactive: [20] 101 % of control | [14] 95 % of control | [15] 92 % of control | [17] 97 % of control

CCCCCCCCCCCCSc1ccc2ccccc2c1
inactive: [21] 87 % of control | [22] 92 % of control

Cc1ccc(NCC(O)CN2CCCCC2)cc1 (stereo unspecified)
inactive: dose: 10.0 mg/kg/injection, schedule: Q01DX009 (ip), vehicle: other 104 % of control | dose: 20.0 mg/kg/injection, schedule: Q01DX009 (ip), vehicle: other 98 % of control | dose: 40.0 mg/kg/injection, schedule: Q01DX009 (ip), vehicle: other 92 % of control

Cc1c(O)cc(O)cc1O
inactive: [14] 96 % of control | [15] 98 % of control

O=CC(Br)C(Br)c1ccccc1 (stereo unspecified)
inactive: dose: 100.0 mg/kg/injection, schedule: Q04DX003 (ip), vehicle: saline with Tween-80 98 % of control

C/C=C/C(=O)Nc1cccc(OC(=O)NC(C)(C)C)c1
inactive: [12] 91 % of control | [19] 86 % of control

C[N+](C)(C)CCOC(=O)c1cccc(CBr)c1
inactive: [23] 92 % of control | [24] 95 % of control | [8] 98 % of control | [25] 93 % of control | [16] 105 % of control

NC(=O)OCCCc1ccccc1
inactive: dose: 12.5 mg/kg/injection, schedule: Q01DX009 (ip), vehicle: saline 112 % of control | dose: 25.0 mg/kg/injection, schedule: Q01DX009 (ip), vehicle: saline 105 % of control | dose: 25.0 mg/kg/injection, schedule: Q04DX003 (ip), vehicle: Klucel (hydroxypropylcellulose) (HPC) 101 % of control | [23] 103 % of control | [7] 104 % of control | [24] 112 % of control | [25] 105 % of control | [4] 98 % of control

Nc1c(Cl)ncnc1NC1COC(CO)C1O (stereo unspecified)
inactive: [21] 100 % of control | [22] 110 % of control | dose: 400.0 mg/kg/injection, schedule: Q01DX001 (ip), vehicle: Klucel (hydroxypropylcellulose) (HPC) 100 % of control

CCCC(CCC)(CCC)CCN
inactive: dose: 5.0 mg/kg/injection, schedule: Q01DX Z (ip), vehicle: carboxymethylcellulose (CMC) 91 % of control | dose: 10.0 mg/kg/injection, schedule: Q01DX Z (ip), vehicle: carboxymethylcellulose (CMC) 112 % of control | [13] 106 % of control | dose: 20.0 mg/kg/injection, schedule: Q01DX Z (ip), vehicle: carboxymethylcellulose (CMC) 101 % of control

CC(=O)Nc1ccc(Cc2ccc3[nH]c(=O)cc(C)c3c2)cc1
inactive: dose: 100.0 mg/kg/injection, schedule: Q01DX001 (ip), vehicle: carboxymethylcellulose (CMC) 96 % of control | dose: 200.0 mg/kg/injection, schedule: Q01DX001 (ip), vehicle: carboxymethylcellulose (CMC) 98 % of control | dose: 400.0 mg/kg/injection, schedule: Q01DX001 (ip), vehicle: carboxymethylcellulose (CMC) 101 % of control

Nn1c(-c2cccc(O)c2)nnc1-c1cccc(O)c1
inactive: [14] 104 % of control | [15] 95 % of control | [17] 101 % of control

Cc1cc(C)n2ncnc2n1
inactive: [12] 105 % of control | [18] 99 % of control

CCCCCCCCCCCCCCCCCc1c(Cl)c(Cl)c(Cl)c(Cl)c1Cl
inactive: [21] 90 % of control

COc1cc(Cl)c(CC(=O)c2c[nH]c3ccccc23)cc1OC
inactive: [20] 96 % of control | [14] 93 % of control | [24] 95 % of control | [15] 96 % of control | [25] 98 % of control | [17] 96 % of control | dose: 400.0 mg/kg/injection, schedule: Q01DX009 (ip), vehicle: saline 101 % of control

CCOC(=O)/C=C/c1cccc([N+](=O)[O-])c1
inactive: [2] 98 % of control | [4] 91 % of control | [6] 101 % of control

CC(C)C(Cl)c1ccccc1 (stereo unspecified)
inactive: dose: 50.0 mg/kg/injection, schedule: Q01DX009 (ip), vehicle: saline with Tween-80 87 % of control | [12] 91 % of control | [18] 87 % of control
